The structures appear in SMILES notation. Activity calls are given as the source filed them. No cut-off for these calls is given here.

Consider 24 compounds from ChEMBL document CHEMBL3351526, “Structure-based optimization of non-peptidic Cathepsin D inhibitors” (Bioorg Med Chem Lett, 2014).

The target in one data set is T1, Renin (Homo sapiens, UniProt P00797).
T1 sequence (P00797 whole entry): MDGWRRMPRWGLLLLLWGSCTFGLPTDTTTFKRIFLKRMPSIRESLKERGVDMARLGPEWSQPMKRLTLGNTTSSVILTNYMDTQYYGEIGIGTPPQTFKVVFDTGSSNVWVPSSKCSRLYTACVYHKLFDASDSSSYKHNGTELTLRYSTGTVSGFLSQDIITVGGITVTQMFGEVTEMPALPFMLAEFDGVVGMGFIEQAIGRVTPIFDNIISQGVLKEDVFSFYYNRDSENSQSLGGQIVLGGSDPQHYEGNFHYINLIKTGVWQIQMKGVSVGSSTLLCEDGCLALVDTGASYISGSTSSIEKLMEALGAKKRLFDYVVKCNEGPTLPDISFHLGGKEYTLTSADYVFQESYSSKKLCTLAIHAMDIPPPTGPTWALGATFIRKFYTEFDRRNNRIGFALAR
The data set can be described thus: Inhibition of human recombinant renin using quenched Dabcyl-g-Abu-IHPFHLVIHT-Edans peptide substrate by fluorescence-based assay.

For data set [1], the target named is T2, Cathepsin D (Homo sapiens, UniProt P07339). The data set can be described thus: Inhibition of human liver cathepsin D using MCA-labeled GKPILFFRLK(Dnp)-D-R-NH2 peptide by fluorescence-based assay.
T2 sequence (P07339 65-162 limits assumed): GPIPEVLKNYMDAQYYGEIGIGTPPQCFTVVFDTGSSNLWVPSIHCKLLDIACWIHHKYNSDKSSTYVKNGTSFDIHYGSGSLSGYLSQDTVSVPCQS
T2 sequence (P07339 169-412 limits assumed): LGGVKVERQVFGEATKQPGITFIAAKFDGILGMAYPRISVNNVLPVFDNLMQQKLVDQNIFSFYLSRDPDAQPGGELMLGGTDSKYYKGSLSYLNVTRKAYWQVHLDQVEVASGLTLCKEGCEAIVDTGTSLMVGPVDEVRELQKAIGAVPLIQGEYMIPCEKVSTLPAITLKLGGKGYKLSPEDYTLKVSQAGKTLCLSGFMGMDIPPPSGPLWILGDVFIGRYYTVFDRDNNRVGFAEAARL
Data set [2] concerns the target T3, Cathepsin D (Bos taurus, UniProt P80209).
T3 sequence (P80209 whole entry): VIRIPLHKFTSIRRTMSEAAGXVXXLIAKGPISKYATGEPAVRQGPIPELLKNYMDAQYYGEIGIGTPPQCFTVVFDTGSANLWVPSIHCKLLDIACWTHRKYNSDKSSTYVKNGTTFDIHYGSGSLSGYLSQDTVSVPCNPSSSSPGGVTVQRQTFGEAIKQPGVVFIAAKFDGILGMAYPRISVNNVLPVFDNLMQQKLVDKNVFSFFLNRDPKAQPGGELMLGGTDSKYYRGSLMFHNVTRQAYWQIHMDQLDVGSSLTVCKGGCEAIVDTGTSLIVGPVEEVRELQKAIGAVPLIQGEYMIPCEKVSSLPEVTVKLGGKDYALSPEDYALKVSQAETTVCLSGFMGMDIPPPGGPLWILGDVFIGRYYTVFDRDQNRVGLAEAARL
Nature of the data set: Inhibition of cathepsin D in bovine cartilage explants assessed as reduction in sulphated GAGs level after 3 days by spectrophotometric 1,9-dimethylmethylene blue shift assay based glycosaminoglycan release method.

A short description of data set [3]: Stability in human liver microsomes assessed as intrinsic clearance. The format is ADME. Particulars: read-out: CLH.
Data set [4] can be described thus: Stability in rat liver microsomes assessed as intrinsic clearance. Format: ADME. The conditions noted are these: read-out: CLH. In general terms: Microsomes from liver hold many membrane-bound enzymes, among them those of drug oxidation.
Data set [5] in a line: Stability in mouse liver microsomes assessed as intrinsic clearance. The format is ADME. The conditions noted are these: read-out: CLH.
Data set [6] can be described thus: Apparent permeability across apical to basolateral side in human Caco2 cells. The format is ADME, cell-based. The conditions noted are these: Caco-2. (Caco-2 monolayers are a common model of the intestinal barrier.)
Data set [7] can be described thus: Inhibition of pepsin (unknown origin). Set-up: species or system Homo sapiens.
A further data set addresses T4, Cathepsin D (Bos taurus) (UniProt P80209).
T4 sequence (whole entry): T3 sequence (P80209 whole entry)
The data set can be described thus: Inhibition of cathepsin D in bovine cartilage explants assessed as reduction in sulphated GAGs level at <1 uM after 3 days by spectrophotometric 1,9-dimethylmethylene blue shift assay based glycosaminoglycan release method.

For data set [8], the target named is T2, Cathepsin D.

With `COc1ccc(Cl)c(CC(=O)NC(=N)NCc2ccccc2)c1`, the results for the IC50 on Renin and against Cathepsin D [1] were more than 30 µM and 6.1 µM, respectively.

Consider `COc1ccc(CC(=O)NC(=N)N[C@H](CC2CCCCC2)C(=O)NCc2ccc(-c3nnn[nH]3)cc2)cc1OC`, for which the IC50 at Cathepsin D [2] amounted to 1.8 µM. For the same compound, the microsomal CLint in data set [3] was 76 µL/min/mg; in [4], 38 µL/min/mg; in data set [5] it was less than 10 µL/min/mg. In addition, in data set [6], the Papp A→B was 0.25 ×10⁻⁶ cm/s.

Turning to `COc1ccc(CNC(=O)[C@@H](CC2CCCCC2)NC(=N)NC(=O)Cc2ccc(OC)c(OC)c2)cc1F`, the 50% inhibitory concentration (IC50) on Renin was 13 µM.

Turning to `CC(C)CC(=O)N[C@H](C(=O)N[C@H](C(=O)N[C@@H](CC(C)C)[C@@H](O)CC(=O)N[C@@H](C)C(=O)N[C@@H](CC(C)C)[C@@H](O)CC(=O)O)C(C)C)C(C)C` [PEPSTATIN], in [7], the midpoint of inhibition, the IC50, lay at 0.0001 µM.

For `COc1cc(CNC(=O)[C@@H](CC(C)C)NC(=N)NC(=O)Cc2ccc(OC)c(OC)c2)ccc1F`, the values for the half-maximal inhibitory concentration (IC50) on Renin and on Cathepsin D [2] were 8.7 µM and 0.62 µM, respectively. Also, the values for the microsomal CLint in data set [3] and in data set [4] were 966 µL/min/mg and 148 µL/min/mg, respectively.

On to `COc1cc(Br)c(CC(=O)NC(=N)N[C@H](CC2CCCCC2)C(=O)NCc2cccc(-c3nnn[nH]3)c2)cc1OC`, for which the microsomal CLint turned out to be 240 µL/min/mg in [3], 33 µL/min/mg in [4] and 40 µL/min/mg in data set [5].

As to `COc1cc(Br)c(CC(=O)NC(=N)N[C@H](CC(C)C)C(=O)NCc2cccc(-c3nnn[nH]3)c2)cc1OC`, the results for the microsomal CLint in [3], in data set [4] and in data set [5] were 107 µL/min/mg, 17 µL/min/mg and 38 µL/min/mg, respectively.

`COc1ccc(CC(=O)NC(=N)N[C@H](CC2CCCCC2)C(=O)NCc2ccc(F)c(F)c2)cc1OC` had an IC50 on Cathepsin D [1] of 0.17 µM.

In the case of `COc1cc(CC(=O)NC(=N)NCc2ccc(Cl)c(Cl)c2)c([N+](=O)[O-])cc1OC`, the figures for the IC50 at Renin and on Cathepsin D [1] were more than 30 µM and 0.44 µM, respectively. Moreover, on Cathepsin D (Bos taurus), the inhibition result was “inactive”.

With `COc1cc(CC(=O)NC(=N)NCc2ccccc2)c([N+](=O)[O-])cc1OC`, the IC50 was more than 30 µM at Renin and 10 µM at Cathepsin D [1].

Consider `COc1ccc(CNC(=N)NC(=O)Cc2cc(OC)c(OC)cc2[N+](=O)[O-])cc1OC`, for which the IC50 was more than 30 µM on Renin and 2.7 µM against Cathepsin D [1]. On Cathepsin D (Bos taurus), the inhibition entry is “inactive”.

On to `COc1cc(CNC(=O)[C@@H](CC2CCCCC2)NC(=N)NC(=O)Cc2ccc(OC)c(OC)c2)ccc1F`, for which the values for the IC50 on Renin and at Cathepsin D [2] were 16 µM and 0.5 µM, respectively. For the same compound, the microsomal CLint in [3] was more than 1000 µL/min/mg; in [4] it was 241 µL/min/mg. In addition, the Papp A→B in data set [6] stood at 5 ×10⁻⁶ cm/s.

Take `COc1cc(CCCC(=O)NC(=N)NCc2ccccc2)c([N+](=O)[O-])cc1OC`: the IC50 at Renin was more than 30 µM; on Cathepsin D [1] it was 18 µM.

In the case of `COc1cc(CC(=O)NC(=N)NCc2ccc(Cl)cc2)c([N+](=O)[O-])cc1OC`, the IC50 on Renin was more than 30 µM; on Cathepsin D [1], 1.5 µM. For the same compound, the inhibition entry on Cathepsin D (Bos taurus) was “inactive”.

For `COc1ccc(CCC(=O)NC(=N)NCc2ccccc2)cc1OC`, the IC50 at Renin stood at 20 µM; against Cathepsin D [1], 25 µM.

As for `COc1ccc(CC(=O)NC(=N)NCc2ccc(C)cc2)cc1OC`, the IC50 on Renin is more than 30 µM; at Cathepsin D [1], 1.9 µM. In addition, the inhibition entry on Cathepsin D (Bos taurus) was “inactive”.

In the case of `COc1ccc(CNC(=O)[C@@H](Cc2ccccc2)NC(=N)NC(=O)Cc2ccc(OC)c(OC)c2)cc1OC`, the values for the IC50 at Renin and on Cathepsin D [2] were more than 30 µM and 0.33 µM, respectively. Moreover, the microsomal CLint in data set [3] was more than 1000 µL/min/mg; in data set [4], 384 µL/min/mg.

On to `COc1cc(Br)c(C(=O)N[C@@H](Cc2cccc(Oc3ccccc3)c2)[C@@H](O)CN(CCc2ccc(Cl)cc2Cl)C(=O)CCN2C(=O)c3ccccc3C2=O)cc1OC`, for which, on Cathepsin D [8], the IC50 amounted to 0.085 µM. Moreover, the inhibition result at Cathepsin D (Bos taurus) is “inactive”.

As for `COc1ccc(CC(=O)NC(=N)N[C@H](CC(C)C)C(=O)NCc2ccc(-c3nnn[nH]3)cc2)cc1OC`, the values for the microsomal CLint in data set [3], in data set [4] and in data set [5] were 69 µL/min/mg, less than 10 µL/min/mg and less than 10 µL/min/mg, respectively.

Turning to `COc1ccc(CC(=O)NC(=N)NCc2ccc(N)cc2)cc1OC`, the IC50 is more than 30 µM on Renin and 29 µM on Cathepsin D [1].

As for `COc1cc(CNC(=O)[C@@H](CC2CCCCC2)NC(=N)NC(=O)Cc2cc(OC)c(OC)cc2Br)ccc1F`, the results for the IC50 on Renin and at Cathepsin D [2] were more than 30 µM and 0.9 µM, respectively. For the same compound, the results for the microsomal CLint in [3] and in data set [4] were more than 1000 µL/min/mg and 823 µL/min/mg, respectively.

For the compound `COc1cc(CC(=O)NC(=N)NCc2ccccc2Cl)c([N+](=O)[O-])cc1OC`, the IC50 is more than 30 µM on Renin and 3 µM on Cathepsin D [1]. For the same compound, at Cathepsin D (Bos taurus), the inhibition result is “inactive”.

`COc1ccc(CC(=O)NC(=N)N[C@H](CC(C)C)C(=O)NCc2ccc(-c3nnn[nH]3)c(F)c2)cc1OC`: the microsomal CLint in data set [3] was 54 µL/min/mg; in [4], less than 10 µL/min/mg.

For `COc1ccc(CNC(=O)[C@@H](CC(C)C)NC(=N)NC(=O)Cc2ccc(OC)c(OC)c2)cc1OC`, the microsomal CLint in data set [3] is 262 µL/min/mg; in [4], 143 µL/min/mg.

As usually defined, the IC50 is the concentration that inhibits the measured activity by half. A word on the Papp A→B: it is the apparent permeability from the apical to the basolateral side of a cell layer.
